# System: RHOXF2 promoter region
# Experiment: Comparison of dCas9- and TALE-based methylation editing, RHOXF2 promoter, bisulfite sequencing in HEK293T cells
# Type: cell-based
# Procedure: FIGS. 10A-10G depict comparison of TALE- and dCas9-based methylation editing. […] Transfection positive cell populations (cherry+) or (GFP+) were FACS sorted 48-hour post-transfection. Methylation levels of each individual CpG in the p16 promoter region were analyzed by bisulfite sequencing. Shown is the mean percentage±SD of two biological replicates with a total of 34 single colonies sequenced for dCas9-Dnmt3a and 31 single colonies sequenced for TALE-Dnmt3a. Red arrow indicates the position of p16 target gRNA, and purple arrow indicates the binding site for TALE-Dnmt3a. FIG. 10B depicts HEK293T cells were co-transfected with dCas9-Tet1 and one RHOXF2 target gRNA (with puro cassette) or TALE-Tet1 with a puro cassette expressing plasmid. Puromycin (2 ug/ml) was added to the culture medium to select for transfection positive cells. Cells were harvested after 2-day selection for analysis of methylation levels for individual CpGs in the RHOXF2 promoter region by bisulfite sequencing. Shown is the mean percentage±SD of two biological replicates with a total of 34 single colonies sequenced for dCas9-Tet1 and 38 single colonies sequenced for TALE-Tet1. Red arrow indicates the position of RHOXF2 target gRNA, and purple arrow indicates the binding site for […]. […]
substance,measurement,setting,value
"dCas9-Tet1: catalytically inactive Cas9 (dCas9) fused through NLS to the Tet1 catalytic domain, SEQ ID NO: 159; lentivirally expressed with gRNAs",region (effective range) of methylation decrease in the RHOXF2 promoter,CpGs with change of methylation greater than 10%,150 bp
same,average decrease of methylation in the RHOXF2 promoter,"one single gRNA or TALE at the same site, 2-day puromycin selection",28%

# Reference: patent US12060588B2, “Methods of editing DNA methylation” (Whitehead Institute for Biomedical Research, priority 2016, dated 2024)
